5 compounds from ChEMBL document CHEMBL1122319, “Substituted (2-phenoxyphenyl)acetic acids with antiinflammatory activity. 1” (J Med Chem, 1983) can be followed below.

Common to all, as to format: functional
Test [1] has as its system Rattus norvegicus. Kind of test: Reduction in paw swelling at 100 mg/kg po dose in rat using adjuvant arthritis test; value is +6 indicates exacerbation of paw swelling.
Test [2] deals with Rattus norvegicus. Kind of test: Reduction in paw swelling at 100 mg/kg po dose in rat using adjuvant arthritis test; value is +3 indicates exacerbation of paw swelling.
Test [3] concerns Rattus norvegicus. Kind of test: Reduction in paw swelling at 100 mg/kg po dose in rat using adjuvant arthritis test; value is +7 indicates exacerbation of paw swelling.
Test [4] has as its system Rattus norvegicus. Put plainly: Reduction in paw swelling at 100 mg/kg po dose in rat using adjuvant arthritis test; value is +4 indicates exacerbation of paw swelling.
Test [5] deals with Rattus norvegicus. Put plainly: Reduction in paw swelling at 100 mg/kg po dose in rat using adjuvant arthritis test; value is +2 indicates exacerbation of paw swelling.

In the case of `COc1ccc(Oc2ccc(C)cc2Cl)c(CC(=O)O)c1`, the Reduction in test [1] amounted to 6. Regarding `Cc1ccc(Oc2cccc(O)c2)c(CC(=O)O)c1`, the Reduction in test [2] is 3. On to `Cc1ccc(Oc2cc(Cl)c(C)cc2CC(=O)O)c(Cl)c1`, for which, in test [3], the Reduction is given as 7. As for `Nc1cc(Cl)ccc1Oc1ccccc1CC(=O)O`, the Reduction in test [4] was 4. As to `Cc1ccc(Oc2ccc(C3CCCCC3)cc2Cl)c(CC(=O)O)c1`, the Reduction in test [5] is reported as 2.
